{"source": "patent US11226337B2", "about": "“Chemoproteomic profiling of protein electrophilic and oxidative post-translational modifications” (Zenagem, LLC, priority 2017, dated 2022)", "test_in_all_cases": "SILAC RP-ABPP", "format_in_all_cases": "cell-based", "key": {"[1]": {"biological_target": "T1, ACOX3 Peroxisomal acylcoenzyme A oxidase 3 (O15254) (Homo sapiens, UniProt O15254)", "T1 construct": "endogenous in cells; host or cells: HEK293T or MDA-MB-231", "settings": "SILAC H/L, MDA-MB-231", "protocol": "(§1) For MS-based experiments, labelling was performed in a similar manner as described above in Example 2, maintaining the same concentrations of probes. Modifications to this protocol included using isotopically ‘light’ and ‘heavy’ SILAC cells that were also grown to near complete confluence prior to treatment. Isotopically light cells were treated with the non-clickable hydrazine probe (at the same concentration as the probe in ‘enrichment’ experiments) or the probe in the presence of 10-fold excess non-clickable hydrazine probe as a competitor (in ‘competition’ experiments). Isotopically heavy cells were treated with the probe for both types of experiments. These treatments were performed in non-SILAC media. Following treatments, cells were washed with cold PBS to remove the probe-containing media, harvested by scraping, collected by centrifugation (1,400 g, 3 min, 4° C.), washed again by resuspension in cold PBS and frozen as pellets at −80° C. until use.\n(§2) The fractionated equimolar mixture of heavy and light soluble proteomes (1-1.5 mg) was diluted to 1 mL in PBS. Click reactions were scaled accordingly (except for biotin-azide) to maintain final concentrations of 0.1 mM TBTA, 1 mM CuSO4, 100 μM biotin-azide (10 mM in DMSO) and 1 mM TCEP. The mixture was vortexed and placed on a rotator at ambient temperature for 1 hour. Sequential addition of and mixture with pre-chilled methanol (MeOH, 2 mL), chloroform (CHCl3, 0.5 mL) and PBS (1 mL) on ice quenched the reaction. The precipitated proteome was centrifuged (5,000 g, 10 min, 4° C.) to fractionate the protein interphase from the organic and aqueous solvent layers. The protein pellet was washed with cold 1:1 MeOH:CHCl3 (3×1 mL), mildly sonicated in cold 4:1 MeOH:CHCl3 (2.5 mL) and pelleted once more by centrifugation (5,000 g, 10 min, 4° C.) to ensure click reagents were efficiently removed.\n(§3) Heavy and light parent ion chromatograms associated with successfully identified peptides were extracted and compared using CIMAGE software as previously described^69. At least one ion of a co-eluting heavy-light pair must be accurately identified from a fragmentation event that occurred within the retention time window (±10 min) of parent ion elution. To ensure that the correct pair of peaks is quantified, chromatograms are extracted within a 10 ppm error tolerance of the predicted m/z, the signal-to-noise ratio must be >2.5 and the ‘co-elution correlation score’ and ‘envelope correlation score’ must have R^2 values ≥0.8. In addition, peptides detected as ‘singletons,’ where only the heavy ion of a peptide pair was identified, but for which passed all other filtering parameters, are given a default assigned ratio of ‘20,’ which is defined as any measured ratio that is ≥20.\n(§4) To further eliminate false positives and any stochastic variability in the data, protein ratios were then determined by the median peptide ratio derived from three or more unique quantified peptides. Protein ratios that complied with these criteria from a single experiment were then averaged with ratios acquired from ≥3 replicates to provide final values for each type of experiment in both cell lines with both probes. […] Most importantly, there are no robustly measured ratios for proteins identified as probe 1 targets that had measured ratios of ˜1 with probe 2. Probe targets in HEK293T and MDA-MB-231 cells represent data combined from ≥3 independent biological replicates with each cell type performed with several independent batches of synthesized probes over a period of almost two years.\n(§5) Analogous experiments were also performed with the aryl hydrazine probe 2 (1 mM, 0.5 hour), which furnished a larger list of high-reactivity proteins (33 in total; Table 3) that contained several of the targets of probe 1 (compared in Table 4), as well as additional proteins that may reflect an expanded chemical reactivity for probe 2."}, "[2]": {"biological_target": "T2, CYP27A1 Sterol 26hydroxylase, mitochondrial (Q02318) (Homo sapiens, UniProt Q02318)", "T2 construct": "endogenous in cells; host or cells: HEK293T or MDA-MB-231", "T2 sequence (Q02318 34-531)": "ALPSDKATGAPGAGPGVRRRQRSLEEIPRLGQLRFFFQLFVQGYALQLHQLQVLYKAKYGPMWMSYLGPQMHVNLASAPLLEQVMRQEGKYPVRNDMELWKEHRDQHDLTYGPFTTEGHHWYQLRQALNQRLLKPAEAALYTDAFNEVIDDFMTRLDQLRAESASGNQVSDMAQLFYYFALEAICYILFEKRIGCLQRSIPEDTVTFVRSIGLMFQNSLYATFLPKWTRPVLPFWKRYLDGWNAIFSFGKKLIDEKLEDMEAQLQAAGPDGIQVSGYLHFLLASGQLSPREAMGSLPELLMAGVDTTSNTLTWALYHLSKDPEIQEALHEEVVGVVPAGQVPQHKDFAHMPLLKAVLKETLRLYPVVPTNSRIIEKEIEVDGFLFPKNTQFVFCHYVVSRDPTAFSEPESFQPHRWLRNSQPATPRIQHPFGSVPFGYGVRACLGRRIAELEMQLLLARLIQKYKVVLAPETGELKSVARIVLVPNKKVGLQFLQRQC", "settings": "SILAC H/L, MDA-MB-231", "protocol": "as §1, §2, §3, §4, §5"}, "[3]": {"biological_target": "T3, HMOX2 Heme oxygenase 2 (P30519) (Homo sapiens, UniProt P30519)", "T3 construct": "In Situ Labelling of Cells with Hydrazine Probes for MS Experiments; endogenous in cells; host or cells: HEK293T and/or MDA-MB-231", "settings": "SILAC H/L, HEK293T", "protocol": "as §1, §2, §3, §4, §5"}, "[4]": {"biological_target": "T4, FADS1 Fatty acid desaturase 1 (O60427) (Homo sapiens, UniProt O60427)", "T4 construct": "In Situ Labelling of Cells with Hydrazine Probes for MS Experiments; endogenous in cells; host or cells: HEK293T and/or MDA-MB-231", "T4 sequence (O60427 whole entry)": "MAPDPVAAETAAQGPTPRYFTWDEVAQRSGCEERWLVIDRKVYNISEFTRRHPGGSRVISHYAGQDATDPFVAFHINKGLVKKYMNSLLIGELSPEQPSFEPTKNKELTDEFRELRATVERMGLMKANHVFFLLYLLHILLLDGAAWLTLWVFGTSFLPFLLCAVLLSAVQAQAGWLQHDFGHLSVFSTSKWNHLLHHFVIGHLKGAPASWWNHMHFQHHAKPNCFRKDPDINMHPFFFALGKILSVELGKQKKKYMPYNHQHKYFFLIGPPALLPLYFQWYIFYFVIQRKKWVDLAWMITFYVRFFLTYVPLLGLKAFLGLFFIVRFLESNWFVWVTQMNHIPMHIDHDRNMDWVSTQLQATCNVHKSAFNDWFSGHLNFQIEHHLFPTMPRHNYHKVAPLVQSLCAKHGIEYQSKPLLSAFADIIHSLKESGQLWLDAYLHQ", "settings": "SILAC H/L, HEK293T", "protocol": "as §1, §2, §3, §4, §5"}, "[5]": {"biological_target": "T5, RRM2B Ribonucleosidediphosphate reductase (Q7LG56) (Homo sapiens, UniProt Q7LG56)", "T5 construct": "endogenous in cells; host or cells: HEK293T or MDA-MB-231", "settings": "SILAC H/L, MDA-MB-231", "protocol": "as §1, §2, §3, §4, §5"}, "[6]": {"biological_target": "T6, KDM5C Lysinespecific demethylase 5C (P41229) (Homo sapiens, UniProt P41229)", "T6 construct": "In Situ Labelling of Cells with Hydrazine Probes for MS Experiments; endogenous in cells; host or cells: HEK293T and/or MDA-MB-231", "T6 sequence (P41229 whole entry)": "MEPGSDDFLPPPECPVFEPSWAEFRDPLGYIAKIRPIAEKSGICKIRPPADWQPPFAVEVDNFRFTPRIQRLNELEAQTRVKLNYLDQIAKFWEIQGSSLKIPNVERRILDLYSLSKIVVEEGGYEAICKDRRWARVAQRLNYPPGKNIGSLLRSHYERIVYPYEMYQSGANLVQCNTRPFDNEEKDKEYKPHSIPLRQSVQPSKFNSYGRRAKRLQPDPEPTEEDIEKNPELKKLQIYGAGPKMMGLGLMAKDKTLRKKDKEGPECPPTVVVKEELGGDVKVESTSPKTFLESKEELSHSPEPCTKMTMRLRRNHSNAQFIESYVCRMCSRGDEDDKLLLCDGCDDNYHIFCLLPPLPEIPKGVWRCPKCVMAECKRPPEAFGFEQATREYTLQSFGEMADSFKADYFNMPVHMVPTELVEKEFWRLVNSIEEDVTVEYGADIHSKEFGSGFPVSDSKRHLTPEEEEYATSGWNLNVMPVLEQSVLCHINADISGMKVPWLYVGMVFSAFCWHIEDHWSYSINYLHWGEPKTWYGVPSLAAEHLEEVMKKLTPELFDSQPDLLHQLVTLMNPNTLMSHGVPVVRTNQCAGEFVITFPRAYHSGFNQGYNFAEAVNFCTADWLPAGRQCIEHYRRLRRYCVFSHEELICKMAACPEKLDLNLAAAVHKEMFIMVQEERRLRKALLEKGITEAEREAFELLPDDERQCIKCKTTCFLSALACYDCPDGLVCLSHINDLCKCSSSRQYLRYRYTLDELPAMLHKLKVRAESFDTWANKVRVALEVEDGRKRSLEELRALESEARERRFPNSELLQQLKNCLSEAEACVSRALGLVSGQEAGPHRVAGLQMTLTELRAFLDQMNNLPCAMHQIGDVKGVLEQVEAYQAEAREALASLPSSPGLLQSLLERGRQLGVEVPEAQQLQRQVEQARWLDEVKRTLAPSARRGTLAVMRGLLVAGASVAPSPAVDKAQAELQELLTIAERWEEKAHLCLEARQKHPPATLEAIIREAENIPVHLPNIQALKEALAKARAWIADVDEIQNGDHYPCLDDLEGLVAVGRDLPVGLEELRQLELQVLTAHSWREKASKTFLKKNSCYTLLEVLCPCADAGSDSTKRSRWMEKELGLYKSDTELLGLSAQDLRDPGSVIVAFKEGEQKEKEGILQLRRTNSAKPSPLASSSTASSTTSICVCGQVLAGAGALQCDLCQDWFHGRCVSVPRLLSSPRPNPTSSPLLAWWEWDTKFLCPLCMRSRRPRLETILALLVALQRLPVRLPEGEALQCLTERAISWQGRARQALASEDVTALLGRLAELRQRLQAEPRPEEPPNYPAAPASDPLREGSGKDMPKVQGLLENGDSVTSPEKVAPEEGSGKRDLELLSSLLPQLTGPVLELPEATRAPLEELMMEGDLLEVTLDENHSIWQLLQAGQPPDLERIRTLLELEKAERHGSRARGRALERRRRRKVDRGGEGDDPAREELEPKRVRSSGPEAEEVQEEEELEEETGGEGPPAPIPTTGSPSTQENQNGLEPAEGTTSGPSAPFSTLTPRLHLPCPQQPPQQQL", "settings": "SILAC H/L, HEK293T", "protocol": "as §1, §2, §3, §4, §5"}, "[7]": {"biological_target": "T7, MINA MYCinduced nuclear antigen (Q8IUF8) (Homo sapiens, UniProt Q8IUF8)", "T7 construct": "In Situ Labelling of Cells with Hydrazine Probes for MS Experiments; endogenous in cells; host or cells: HEK293T and/or MDA-MB-231", "T7 sequence (Q8IUF8 whole entry)": "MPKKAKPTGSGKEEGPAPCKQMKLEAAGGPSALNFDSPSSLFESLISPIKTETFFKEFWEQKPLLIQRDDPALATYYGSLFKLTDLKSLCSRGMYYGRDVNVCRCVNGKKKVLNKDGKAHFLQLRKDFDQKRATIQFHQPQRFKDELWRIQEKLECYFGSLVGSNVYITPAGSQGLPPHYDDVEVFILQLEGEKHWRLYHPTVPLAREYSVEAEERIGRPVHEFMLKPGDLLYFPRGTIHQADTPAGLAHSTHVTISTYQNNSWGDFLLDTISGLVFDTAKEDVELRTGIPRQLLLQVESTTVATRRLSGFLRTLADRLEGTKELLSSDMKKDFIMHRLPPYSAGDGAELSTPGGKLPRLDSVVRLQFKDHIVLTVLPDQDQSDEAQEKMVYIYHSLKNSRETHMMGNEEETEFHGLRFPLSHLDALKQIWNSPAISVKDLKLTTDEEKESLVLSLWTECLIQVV", "settings": "SILAC H/L, HEK293T", "protocol": "as §1, §2, §3, §4, §5"}, "[8]": {"biological_target": "T8, KDM1A Lysinespecific histone demethylase 1A (O60341) (Homo sapiens, UniProt O60341)", "T8 construct": "In Situ Labelling of Cells with Hydrazine Probes for MS Experiments; endogenous in cells; host or cells: HEK293T and/or MDA-MB-231", "settings": "SILAC H/L, HEK293T", "protocol": "as §1, §2, §3, §4, §5"}, "[9]": {"biological_target": "T9, CTSS Cathepsin S (P25774) (Homo sapiens, UniProt P25774)", "T9 construct": "endogenous in cells; host or cells: HEK293T or MDA-MB-231", "T9 sequence (P25774 115-331)": "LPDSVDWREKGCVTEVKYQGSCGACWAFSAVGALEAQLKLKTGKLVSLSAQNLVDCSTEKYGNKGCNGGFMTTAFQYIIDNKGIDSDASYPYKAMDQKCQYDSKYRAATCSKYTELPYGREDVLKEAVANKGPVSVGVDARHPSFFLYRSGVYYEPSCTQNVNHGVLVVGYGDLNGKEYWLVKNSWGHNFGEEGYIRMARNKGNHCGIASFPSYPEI", "settings": "SILAC H/L, MDA-MB-231", "protocol": "as §1, §2, §3, §4, §5"}, "[10]": {"biological_target": "T10, PYROXD2 Pyridine nucleotidedisulfide (Q8N2H3) (Homo sapiens, UniProt Q8N2H3)", "T10 construct": "In Situ Labelling of Cells with Hydrazine Probes for MS Experiments; endogenous in cells; host or cells: HEK293T and/or MDA-MB-231", "T10 sequence (Q8N2H3 whole entry)": "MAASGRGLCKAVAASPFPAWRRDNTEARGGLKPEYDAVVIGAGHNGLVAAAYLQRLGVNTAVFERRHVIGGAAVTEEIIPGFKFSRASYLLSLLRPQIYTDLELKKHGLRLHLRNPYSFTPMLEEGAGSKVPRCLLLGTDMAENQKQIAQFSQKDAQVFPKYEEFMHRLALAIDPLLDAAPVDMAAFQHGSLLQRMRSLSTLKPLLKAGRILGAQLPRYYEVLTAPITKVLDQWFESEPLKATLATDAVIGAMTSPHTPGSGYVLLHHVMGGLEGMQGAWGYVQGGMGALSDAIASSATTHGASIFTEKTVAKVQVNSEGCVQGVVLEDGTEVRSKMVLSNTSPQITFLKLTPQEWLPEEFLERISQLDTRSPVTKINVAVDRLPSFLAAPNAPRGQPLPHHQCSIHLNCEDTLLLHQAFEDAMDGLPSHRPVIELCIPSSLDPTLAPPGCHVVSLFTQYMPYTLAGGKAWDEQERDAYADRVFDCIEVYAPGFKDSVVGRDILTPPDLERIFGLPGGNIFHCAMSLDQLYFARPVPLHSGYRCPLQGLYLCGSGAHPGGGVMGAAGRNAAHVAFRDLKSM", "settings": "SILAC H/L, MDA-MB-231", "protocol": "as §1, §2, §3, §4, §5"}, "[11]": {"biological_target": "T11, ACAA1 3ketoacylCoA thiolase, peroxisomal (P09110) (Homo sapiens, UniProt P09110)", "T11 construct": "endogenous in cells; host or cells: HEK293T or MDA-MB-231", "T11 sequence (P09110 27-424)": "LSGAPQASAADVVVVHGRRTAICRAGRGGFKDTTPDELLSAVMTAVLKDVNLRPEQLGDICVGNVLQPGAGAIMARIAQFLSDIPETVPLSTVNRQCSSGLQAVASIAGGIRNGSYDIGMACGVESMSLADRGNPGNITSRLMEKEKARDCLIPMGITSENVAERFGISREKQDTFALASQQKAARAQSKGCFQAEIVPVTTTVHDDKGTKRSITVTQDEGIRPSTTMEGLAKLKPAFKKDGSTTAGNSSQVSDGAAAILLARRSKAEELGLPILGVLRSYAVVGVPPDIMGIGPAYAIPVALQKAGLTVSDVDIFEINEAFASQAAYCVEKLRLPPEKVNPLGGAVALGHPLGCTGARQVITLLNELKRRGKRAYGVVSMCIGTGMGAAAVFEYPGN", "settings": "SILAC H/L, MDA-MB-231", "protocol": "as §1, §2, §3, §4, §5"}, "[12]": {"biological_target": "T12, SCD AcylCoA desaturase (O00767) (Homo sapiens, UniProt O00767)", "T12 construct": "In Situ Labelling of Cells with Hydrazine Probes for MS Experiments; endogenous in cells", "T12 sequence (O00767 whole entry)": "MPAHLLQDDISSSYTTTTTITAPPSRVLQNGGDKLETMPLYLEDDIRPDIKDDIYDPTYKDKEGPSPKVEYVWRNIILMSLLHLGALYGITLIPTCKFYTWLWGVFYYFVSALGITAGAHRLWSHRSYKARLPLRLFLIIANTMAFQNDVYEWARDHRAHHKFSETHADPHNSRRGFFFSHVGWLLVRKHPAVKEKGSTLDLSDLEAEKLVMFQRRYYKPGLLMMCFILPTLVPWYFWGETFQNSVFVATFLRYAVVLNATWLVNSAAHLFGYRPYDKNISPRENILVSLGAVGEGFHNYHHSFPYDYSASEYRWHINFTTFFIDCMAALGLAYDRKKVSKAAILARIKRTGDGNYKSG", "settings": "SILAC H/L, HEK293T", "protocol": "as §1, §2, §3, §4, §5"}, "[13]": {"biological_target": "T13, CYCS Cytochrome c (P99999) (Homo sapiens, UniProt P99999)", "T13 construct": "In Situ Labelling of Cells with Hydrazine Probes for MS Experiments; endogenous in cells; host or cells: HEK293T and/or MDA-MB-231", "T13 sequence (P99999 whole entry)": "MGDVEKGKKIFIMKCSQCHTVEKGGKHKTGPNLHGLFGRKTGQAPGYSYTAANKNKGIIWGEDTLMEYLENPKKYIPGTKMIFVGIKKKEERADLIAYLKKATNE", "settings": "SILAC H/L, HEK293T", "protocol": "as §1, §2, §3, §4, §5"}, "[14]": {"biological_target": "T14, PTGR2 Prostaglandin reductase 2 (Q8N8N7) (Homo sapiens, UniProt Q8N8N7)", "T14 construct": "endogenous in cells; host or cells: HEK293T or MDA-MB-231", "T14 sequence (Q8N8N7 whole entry)": "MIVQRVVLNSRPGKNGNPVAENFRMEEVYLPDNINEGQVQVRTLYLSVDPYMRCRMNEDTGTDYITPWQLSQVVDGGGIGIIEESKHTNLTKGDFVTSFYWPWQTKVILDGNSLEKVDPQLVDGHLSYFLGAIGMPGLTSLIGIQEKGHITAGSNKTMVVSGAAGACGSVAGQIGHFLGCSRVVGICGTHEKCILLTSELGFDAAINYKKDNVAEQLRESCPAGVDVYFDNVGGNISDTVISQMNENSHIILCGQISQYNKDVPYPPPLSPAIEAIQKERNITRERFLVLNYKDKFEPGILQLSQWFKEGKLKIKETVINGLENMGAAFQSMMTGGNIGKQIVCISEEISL", "settings": "SILAC H/L, MDA-MB-231", "protocol": "as §1, §2, §3, §4, §5"}}}
{"smiles": "C#CCCNC(=O)c1ccc(NN)cc1.Cl", "note": "[probe 2, N-(but-3-yn-1-yl)-4-hydrazinylbenzamide hydrochloride]", "values": [{"measurement": "enrichment ratioavg", "setting": "[1]; probe 2 1 mM 0.5 h vs probe 4", "value": 20}, {"measurement": "competition ratioavg", "setting": "[1]; probe 2 vs probe 2+10x probe 4", "value": 1}, {"measurement": "enrichment ratioavg", "setting": "[2]; probe 2 1 mM 0.5 h vs probe 4", "value": 20}, {"measurement": "competition ratioavg", "setting": "[2]; probe 2 vs probe 2+10x probe 4", "value": 3}, {"measurement": "enrichment ratioavg", "setting": "[3]; probe 2 1 mM 0.5 h vs probe 4", "value": 20}, {"measurement": "competition ratioavg", "setting": "[3]; probe 2 vs probe 2+10x probe 4", "value": 5}, {"measurement": "enrichment ratioavg", "setting": "[4]; probe 2 1 mM 0.5 h vs probe 4", "value": 20}, {"measurement": "competition ratioavg", "setting": "[4]; probe 2 vs probe 2+10x probe 4", "value": 4}, {"measurement": "enrichment ratioavg", "setting": "[5]; probe 2 1 mM 0.5 h vs probe 4", "value": 7}, {"measurement": "competition ratioavg", "setting": "[5]; probe 2 vs probe 2+10x probe 4", "value": 2}, {"measurement": "enrichment ratioavg", "setting": "[6]; probe 2 1 mM 0.5 h vs probe 4", "value": 19}, {"measurement": "competition ratioavg", "setting": "[6]; probe 2 vs probe 2+10x probe 4", "value": 3}, {"measurement": "enrichment ratioavg", "setting": "[7]; probe 2 1 mM 0.5 h vs probe 4", "value": 8}, {"measurement": "competition ratioavg", "setting": "[7]; probe 2 vs probe 2+10x probe 4", "value": 2}, {"measurement": "enrichment ratioavg", "setting": "[8]; probe 2 1 mM 0.5 h vs probe 4", "value": 20}, {"measurement": "competition ratioavg", "setting": "[8]; probe 2 vs probe 2+10x probe 4", "value": 2}, {"measurement": "enrichment ratioavg", "setting": "[9]; probe 2 1 mM 0.5 h vs probe 4", "value": 18}, {"measurement": "competition ratioavg", "setting": "[9]; probe 2 vs probe 2+10x probe 4", "value": 3}, {"measurement": "enrichment ratioavg", "setting": "[10]; probe 2 1 mM 0.5 h vs probe 4", "value": 20}, {"measurement": "competition ratioavg", "setting": "[10]; probe 2 vs probe 2+10x probe 4", "value": 20}, {"measurement": "enrichment ratioavg", "setting": "[11]; probe 2 1 mM 0.5 h vs probe 4", "value": 6}, {"measurement": "competition ratioavg", "setting": "[11]; probe 2 vs probe 2+10x probe 4", "value": 2}, {"measurement": "enrichment ratioavg", "setting": "[12]; probe 2 1 mM 0.5 h vs probe 4", "value": 20}, {"measurement": "competition ratioavg", "setting": "[12]; probe 2 vs probe 2+10x probe 4", "value": 9}, {"measurement": "enrichment ratioavg", "setting": "[13]; probe 2 1 mM 0.5 h vs probe 4", "value": 7}, {"measurement": "competition ratioavg", "setting": "[13]; probe 2 vs probe 2+10x probe 4", "value": 0}, {"measurement": "enrichment ratioavg", "setting": "[14]; probe 2 1 mM 0.5 h vs probe 4", "value": 15}, {"measurement": "competition ratioavg", "setting": "[14]; probe 2 vs probe 2+10x probe 4", "value": 1}]}
